Source: patent publication US8383637B2, “2-amino-quinazoline derivatives useful as inhibitors of β-secretase (BACE)” (Jansssen Pharmaceutica N.V., priority 2004, dated 2013)

Columns and labels:
β-secretase(BACE) [1] = molecular target: T1, β-secretase(BACE) (Homo sapiens, UniProt P56817); assay: BACE Assay-2 (FS1 substrate, IC50 and Ki); format: biochemical; conditions: procedure of Example 159, FS1 substrate; read-out: Ki μM (159)
T1 construct: purchased Panvera

β-secretase(BACE) [2] = molecular target: T1, β-secretase(BACE); assay: BACE % Inhibition Assay ((Aedens)-[…]-(Dabcyl K-amide) substrate); format: biochemical; conditions: % error ±10%; for inhibition at 3 µM: read-out: % Inhibition
Protocol: The substrate stock solution was prepared in DMSO as a 10 mg/mL solution. The substrate working solution was prepared by diluting the 10 mg/mL stock solution with substrate assay buffer to a final concentration of 300 μg/mL. The β-secretase (BACE) working solution was prepared by diluting a 0.83 mg/mL BACE stock solution with enzyme assay buffer to a final concentration of 4 μg/mL.
Test compounds were dissolved in DMSO to 10 mM.
The screening procedure for this assay was as follows: 15 μL of BACE working solution was pipetted into each well of a 96-well plate. To each well was then pipetted 2 μL of test compound at the selected concentration. Test compound and BACE were then mixed with a pipettor and incubated for 20 min at room temperature. To each well was then added 10 μL of the substrate working solution. The plates were then incubated for 1 hour at room temperature.
The procedure for the blank was as follows. 15 μL of assay buffer was pipetted into each well to be used as a blank control. To each well was then added 2 μL of vehicle and 10 μL of substrate working solution. The plates were then incubated for 1 hour at room temperature.
The procedure for the positive control was as follows: 15 μl of BACE working solution was pipetted into each well to be used as a positive control. To each well was then pipetted 2 μL of vehicle. Vehicle and BACE were then mixed with a pipettor and incubated for 20 min at room temperature. To each well was then added 10 μL of the substrate working solution. The plates were then incubated for 1 hour at room temperature.
For test compounds, % inhibition was determined at each concentration as follows: […]

T1 sequence (P56817 46-501): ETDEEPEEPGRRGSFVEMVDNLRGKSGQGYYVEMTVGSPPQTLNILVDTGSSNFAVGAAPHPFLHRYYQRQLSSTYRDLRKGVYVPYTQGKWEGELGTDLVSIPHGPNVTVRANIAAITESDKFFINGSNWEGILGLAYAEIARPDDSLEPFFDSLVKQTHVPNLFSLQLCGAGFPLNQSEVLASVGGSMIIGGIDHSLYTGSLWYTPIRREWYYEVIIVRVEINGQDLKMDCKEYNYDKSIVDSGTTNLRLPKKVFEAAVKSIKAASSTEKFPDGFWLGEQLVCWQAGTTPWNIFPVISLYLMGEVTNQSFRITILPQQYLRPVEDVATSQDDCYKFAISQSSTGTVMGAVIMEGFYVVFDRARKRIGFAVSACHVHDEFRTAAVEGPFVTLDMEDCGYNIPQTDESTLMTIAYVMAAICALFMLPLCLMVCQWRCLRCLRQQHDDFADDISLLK

Structure (SMILES)	% Inhibition (β-secretase(BACE) [2]; 3 μM test compound) [%]	% Inhibition (β-secretase(BACE) [2]; 10 μM test compound) [%]	other results
NC1=Nc2ccc(Oc3ccccc3)cc2CN1CCC(=O)NC12CC3CC(CC(C3)C1)C2 [Compound 365]			Ki (β-secretase(BACE) [1]): 0.1 µM; inhibition at 0.3 µM (β-secretase(BACE) [2]; 0.3 μM test compound): < 30%; inhibition at 1 µM (β-secretase(BACE) [2]; 1 μM test compound): 86%; inhibition at 3 µM (β-secretase(BACE) [2]; 3 μM test compound): 113%
CCCN1Cc2cc(Oc3cccc(NC(=O)C4CCCCC4)c3)ccc2N=C1N [Compound 44]	<30	31	
CCCN1Cc2cc(Oc3cccc(N(C#N)CC4CCCCC4)c3)ccc2N=C1N [Compound 56]	35	79	
CCN(CC)CCN1Cc2cc(Oc3ccccc3)ccc2N=C1N [Compound 79]	<30	<30	
NC1=Nc2ccc(Oc3ccccc3)cc2CN1C(CNC(=O)C1(c2ccc(Cl)cc2)CCCC1)C1CCCCC1 (centres unmarked) [Compound 390]	102		% Inhibition (β-secretase(BACE) [2]; 0.3 μM test compound): <30%; % Inhibition (β-secretase(BACE) [2]; 1 μM test compound): 50%
CCCCC(CC)C(=O)NCc1cccc(CN2Cc3cc(Oc4ccccc4)ccc3N=C2N)c1 (centres unmarked) [Compound 339]	<30		% Inhibition (β-secretase(BACE) [2]; 0.3 μM test compound): <30%; % Inhibition (β-secretase(BACE) [2]; 1 μM test compound): <30%
CC(C)(C)OC(=O)NCC(C1CCCCC1)N1Cc2cc(Oc3ccccc3)ccc2N=C1N (centres unmarked) [Compound 367]			Ki (β-secretase(BACE) [1]): 0.12 µM; inhibition at 0.3 µM (β-secretase(BACE) [2]; 0.3 μM test compound): < 30%; inhibition at 1 µM (β-secretase(BACE) [2]; 1 μM test compound): 80%; inhibition at 3 µM (β-secretase(BACE) [2]; 3 μM test compound): 111%
CCCC(CCC(=O)N(C)C1CCCCC1)N1Cc2cc(Oc3ccccc3)ccc2N=C1N (centres unmarked) [Compound 86]	72	80	
CN(C(=O)C1CCC(CN2Cc3cc(Oc4ccccc4)ccc3N=C2N)CC1)C1CCCCC1 (centres unmarked) [Compound 100]	<30	<30	
CN(C(=O)c1ccc(CN2Cc3cc(Oc4ccccc4)ccc3N=C2N)cc1)C1CCCCC1 [Compound 97]	<30	53	
Cc1ccc(S(=O)(=O)NCCN2Cc3cc(Oc4ccccc4)ccc3N=C2N)cc1 [Compound 109]	<30	58	
CCCC(CCC)C(=O)NCc1cccc(CN2Cc3cc(Oc4ccccc4)ccc3N=C2N)c1 [Compound 338]	<30		% Inhibition (β-secretase(BACE) [2]; 0.3 μM test compound): <30%; % Inhibition (β-secretase(BACE) [2]; 1 μM test compound): <30%

Now from value to molecule, other results behind:

% Inhibition (β-secretase(BACE) [2]; 3 μM test compound) [%]	% Inhibition (β-secretase(BACE) [2]; 10 μM test compound) [%]	Structure (SMILES)	other results
<30	<30	CC(C)(C)OC(=O)N1CCC(N2Cc3cc(Oc4ccccc4)ccc3N=C2N)C1 (centres unmarked) [Compound 93]	
<30	<30	CN(C(=O)[C@@H]1CCC[C@@H]1N1Cc2cc(Oc3ccccc3)ccc2N=C1N)C1CCCCC1 [Compound 72]	
107		CC(C)(C)C(=O)NCC(C1CCCCC1)N1Cc2cc(Oc3ccccc3)ccc2N=C1N (centres unmarked) [Compound 317]	% Inhibition (β-secretase(BACE) [2]; 0.3 μM test compound): <30%; % Inhibition (β-secretase(BACE) [2]; 1 μM test compound): 66%
<30	<30	CN(C(=O)[C@@H]1CCCC[C@@H]1N1Cc2cc(Oc3ccccc3)ccc2N=C1N)C1CCCCC1 [Compound 87]	
<30	<30	CN(C(=O)[C@@H]1CC[C@H](N2Cc3cc(Oc4ccccc4)ccc3N=C2N)C1)C1CCCCC1 [Compound 77]	
<30	<30	CCOC(=O)CCN1Cc2cc(Oc3ccccc3)ccc2N=C1N [Compound 65]	
